Measurements reported in patent US8148367B2 (Takeda Pharmaceutical Company Limited, priority 2008, dated 2012).

Target: T1, Recombinant human renin (Homo sapiens, UniProt P00797)
T1 construct: isolate the active form (residues 67-406); made in house; host or cells: FreeStyle 293-F cells, transient expression of pcDNA3.1(+)/hREN
T1 sequence (P00797 67-406): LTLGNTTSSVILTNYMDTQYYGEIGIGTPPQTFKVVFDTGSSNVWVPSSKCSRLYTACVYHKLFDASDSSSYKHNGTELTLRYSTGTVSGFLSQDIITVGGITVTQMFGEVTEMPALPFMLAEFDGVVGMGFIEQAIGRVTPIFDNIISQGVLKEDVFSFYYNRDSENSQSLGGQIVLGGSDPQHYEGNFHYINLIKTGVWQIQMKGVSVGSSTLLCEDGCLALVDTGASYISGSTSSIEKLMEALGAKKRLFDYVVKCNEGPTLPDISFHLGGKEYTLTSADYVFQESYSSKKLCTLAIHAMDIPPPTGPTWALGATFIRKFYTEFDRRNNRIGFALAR
Test: In vitro enzymatic activity assay of renin inhibitors (fluorescence, QXL520/HiLyteFluo488 peptide substrate)
Type: biochemical
Settings: recombinant human renin 3 nM, 1 μM substrate, pre-incubated 10 minutes at 37° C., incubation one hour, pH 7.4, 5% DMSO; read-out: IC50 of Exemplified Compounds Against Renin

SMILES | IC50
Cc1ccccc1-n1c(-c2ccccc2)c(C(=O)N2CCNCC2)n(Cc2ccc(F)c(F)c2)c1=O [Example 144, 1-(3,4-Difluorobenzyl)-4-phenyl-5-(piperazine-1-carbonyl)-3-o-tolyl-1H-imidazol-2(3H)-one] | 500 to 1000 nM
CCOC(=O)NCCn1c(C(=O)N2CCNCC2)c(-c2ccccc2)n(-c2ccccc2C)c1=O [Example 250, Ethyl 2-(2-oxo-4-phenyl-5-(piperazine-1-carbonyl)-3-o-tolyl-2,3-dihydro-1H-imidazol-1-yl)ethylcarbamate] | > 1000 nM
Cc1cc(Cn2c(C(=O)N3CCNCC3)c(-c3ccccc3)n(-c3ccccc3)c2=O)no1 [Example 47, 1-((5-Methylisoxazol-3-yl)methyl)-3,4-diphenyl-5-(piperazine-1-carbonyl)-1H-imidazol-2(3H)-one] | > 1000 nM
CC(=O)N1CCCC(n2c(-c3ccccc3)c(C(=O)N3CCNCC3)n(Cc3cccc(Oc4ccccc4)c3)c2=O)C1 (centres unmarked) [Example 99, 1-(1-Acetylpiperidin-3-yl)-3-(3-phenoxybenzyl)-5-phenyl-4-(piperazine-1-carbonyl)-1H-imidazol-2(3H)-one] | > 1000 nM
COc1cccc(Cn2c(C(=O)N3CCNCC3)c(-c3ccccc3)n(C3CCCN(C(C)=O)C3)c2=O)c1 (centres unmarked) [Example 92, 1-(1-Acetylpiperidin-3-yl)-3-(3-methoxybenzyl)-5-phenyl-4-(piperazine-1 carbonyl)-1H-imidazol-2(3H)-one] | > 1000 nM
O=C(c1cccc(Cn2c(C(=O)N3CCNCC3)c(-c3ccccc3)n(-c3cccc(N4CCOCC4)c3)c2=O)c1)N1CCCCC1 [Example 58, 1-(3-Morpholinophenyl)-5-phenyl-4-(piperazine-1-carbonyl)-3-(3-(piperidine-1-carbonyl)benzyl)-1H-imidazol-2(3H)-one] | > 1000 nM
O=C(c1c(-c2ccccc2)n(C2CCCCC2)c(=O)n1Cc1cc(-c2cn[nH]c2)nc(-c2cn[nH]c2)c1)N1CCNCC1 [Example 91, 1-Cyclohexyl-3-((2,6-di(1H-pyrazol-4-yl)pyridin-4-yl)methyl)-5-phenyl-4-(piperazine-1-carbonyl)-1H-imidazol-2(3H)-one] | 100 to 500 nM
O=C(c1c(-c2ccccc2)n([C@@H]2CCCC[C@H]2O)c(=O)n1Cc1cccc(Oc2ccccc2)c1)N1CCNCC1 [Example 106, 1-((1R,2R)-2-Hydroxycyclohexyl)-3-(3-phenoxybenzyl)-5-phenyl-4-(piperazine-1-carbonyl)-1H-imidazol-2(3H)-one] | 100 to 500 nM
COCCOc1cccc(-n2c(-c3cccc(Cl)c3)c(C(=O)N3CCNCC3)[nH]c2=O)c1 [Example 43, 5-(3-Chlorophenyl)-1-(3-(2-methoxyethoxy)phenyl)-4-(piperazine-1-carbonyl)-1H-imidazol-2(3H)-one] | > 1000 nM
O=C(c1c(-c2ccccc2)n(-c2cccc(N3CCOCC3)c2)c(=O)n1Cc1cccc(-n2cccc2)c1)N1CCNCC1 [Example 77, 1-(3-(1H-Pyrrol-1-yl)benzyl)-3-(3-morpholinophenyl)-4-phenyl-5-(piperazine-1-carbonyl)-1H-imidazol-2(3H)-one] | < 100 nM
C[C@H]1CN(C(=O)c2[nH]c(=O)n(C3CCCCC3)c2-c2ccccc2)CCN1 [Example 39, (S)-1-Cyclohexyl-4-(3-methylpiperazine-1-carbonyl)-5-phenyl-1H-imidazol-2(3H)-one] | > 1000 nM
COCCOc1cccc(Cn2c(C(=O)N3CCNCC3)c(-c3ccccc3)n(-c3ccccc3C)c2=O)c1 [Example 27, 1-(3-(2-methoxyethoxy)benzyl)-4-phenyl-5-(piperazine-1-carbonyl)-3-o-tolyl-1H-imidazol-2(3H)-one] | 100 to 500 nM
COc1cccc(S(=O)(=O)NCCCn2c(C(=O)N3CCNCC3)c(-c3ccccc3)n(-c3cccc(N4CCOCC4)c3)c2=O)c1 [Example 198, 3-Methoxy-N-(3-(3-(3-morpholinophenyl)-2-oxo-4-phenyl-5-(piperazine-1-carbonyl)-2,3-dihydro-1H-imidazol-1-yl)propyl)benzenesulfonamide] | 100 to 500 nM
O=C(c1c(-c2ccccc2)n([C@@H]2CCCC[C@H]2O)c(=O)n1Cc1ccccc1)N1CCNCC1 [Example 105, 1-Benzyl-3-((1R,2R)-2-hydroxycyclohexyl)-4-phenyl-5-(piperazine-1-carbonyl)-1H-imidazol-2(3H)-one] | > 1000 nM
O=C(c1c(-c2ccccc2)n(-c2ccccc2)c(=O)n1Cc1ccc(F)c(F)c1)N1CCNCC1 [Example 52, 1-(3,4-Difluorobenzyl)-3,4-diphenyl-5-(piperazine-1-carbonyl)-1H-imidazol-2(3H)-one] | 100 to 500 nM
O=C(c1c(-c2ccccc2)n(C2CCCC[C@@H]2O)c(=O)n1CCCNS(=O)(=O)c1ccccc1)N1CCNCC1 (stereo partly drawn) [Example 171, N-(3-(3-((2S)-2-Hydroxycyclohexyl)-2-oxo-4-phenyl-5-(piperazine-1-carbonyl)-2,3-dihydro-1H-imidazol-1-yl)propyl)benzenesulfonamide] | > 1000 nM
O=C(c1c(-c2ccccc2)n(-c2ccccc2)c(=O)n1CC1CCOCC1)N1CCNCC1 [Example 53, 1,5-Diphenyl-4-(piperazine-1-carbonyl)-3-((tetrahydro-2H-pyran-4-yl)methyl)-1H-imidazol-2(3H)-one] | > 1000 nM
O=C(NCCCn1c(C(=O)N2CCNCC2)c(-c2ccccc2)n(-c2cccc(N3CCOCC3)c2)c1=O)c1ccccc1 [Example 174] | > 1000 nM

The remaining lines, values ahead:

IC50 | SMILES
100 to 500 nM | Cc1ccccc1-n1c(-c2ccccc2)c(C(=O)N2CCNCC2)n(CCNC(=O)Nc2ccccc2)c1=O [Example 211, 1-(2-(2-Oxo-4-phenyl-5-(piperazine-1-carbonyl)-3-o-tolyl-2,3-dihydro-1H-imidazol-1-yl)ethyl)-3-phenylurea]
< 100 nM | COCCn1c(C(=O)N2CCNC[C@H]2Cc2ccccc2)c(-c2ccccc2)n(C2CCCCC2)c1=O [Example 66, (R)-4-(2-Benzylpiperazine-1-carbonyl)-1-cyclohexyl-3-(2-methoxyethyl)-5-phenyl-1H-imidazol-2(3H)-one]
< 100 nM | O=C(c1[nH]c(=O)n(-c2ccccc2NS(=O)(=O)c2ccccc2)c1-c1ccccc1)N1CCNC[C@H]1Cc1ccccc1 [Example 125, (R)—N-(2-(4-(2-benzylpiperazine-1-carbonyl)-2-oxo-5-phenyl-2,3-dihydro-1H-imidazol-1-yl)phenyl)Benzenesulfonamide]
100 to 500 nM | O=C(c1c(-c2ccccc2)n(-c2ccccc2)c(=O)n1Cc1cccc(F)c1)N1CCNCC1 [Example 51, 1-(3-Fluorobenzyl)-3,4-diphenyl-5-(piperazine-1-carbonyl)-1H-imidazol-2(3H)-one]
> 1000 nM | O=C(c1[nH]c(=O)n(-c2ccccc2)c1-c1ccccc1)N1CCNCC1 [Example 18, 1,5-Diphenyl-4-(piperazine-1-carbonyl)-1H-imidazol-2(3H)-one]
100 to 500 nM | O=C(c1c(-c2ccccc2)n(C2CCCN(S(=O)(=O)c3ccccn3)C2)c(=O)n1Cc1cccc(Oc2ccccc2)c1)N1CCNCC1 (centres unmarked) [Example 103, 1-(3-Phenoxybenzyl)-4-phenyl-5-(piperazine-1-carbonyl)-3-(1-(pyridin-2-ylsulfonyl)piperidin-3-yl)-1H-imidazol-2(3H)-one]
< 100 nM | O=C(c1[nH]c(=O)n(CC2(O)CCCCC2)c1-c1ccccc1)N1CCNC[C@H]1Cc1ccccc1 [Example 130, (R)-4-(2-Benzylpiperazine-1-carbonyl)-1-((1-hydroxycyclohexyl)methyl)-5-phenyl-1H-imidazol-2(3H)-one]
100 to 500 nM | Cc1ccccc1-n1c(-c2ccccc2)c(C(=O)N2CCNCC2)n(CCCNS(=O)(=O)c2ccc(Cl)cc2)c1=O [Example 219, 4-Chloro-N-(3-(2-oxo-4-phenyl-5-(piperazine-1-carbonyl)-3-o-tolyl-2,3-dihydro-1H-imidazol-1-yl)propyl)benzenesulfonamide]
100 to 500 nM | Cc1ccccc1-n1c(-c2ccccc2)c(C(=O)N2CCNCC2)n(Cc2cccc(OCCOc3ccccc3)c2)c1=O [Example 149, 1-(3-(2-Phenoxyethoxy)benzyl)-4-phenyl-5-(piperazine-1-carbonyl)-3-o-tolyl-1H-imidazol-2(3H)-one]
100 to 500 nM | COc1ccc(S(=O)(=O)NCCCn2c(C(=O)N3CCNCC3)c(-c3ccccc3)n(-c3ccccc3C)c2=O)cc1 [Example 222, 4-Methoxy-N-(3-(2-oxo-4-phenyl-5-(piperazine-1-carbonyl)-3-o-tolyl-2,3-dihydro-1H-imidazol-1-yl)propyl)benzenesulfonamide]
500 to 1000 nM | Cc1ccccc1-n1c(-c2ccccc2)c(C(=O)N2CCNCC2)n(CCNS(=O)(=O)c2ccccc2C)c1=O [Example 208, 2-Methyl-N-(2-(2-oxo-4-phenyl-5-(piperazine-1-carbonyl)-3-o-tolyl-2,3-dihydro-1H-imidazol-1-yl)ethyl)benzenesulfonamide]
500 to 1000 nM | O=C(c1c(-c2ccccc2)n(C2CCCN(S(=O)(=O)c3ccccc3)C2)c(=O)n1Cc1ccccc1)N1CCNCC1 (centres unmarked) [Example 100, 1-Benzyl-4-phenyl-3-(1-(phenylsulfonyl)piperidin-3-yl)-5-(piperazine-1-carbonyl)-1H-imidazol-2(3H)-one]
< 100 nM | O=C(c1[nH]c(=O)n(-c2ccc3c(c2)NCC3)c1-c1ccccc1)N1CCNC[C@H]1Cc1ccccc1 [Example 136, (R)-4-(2-Benzylpiperazine-1-carbonyl)-1-(indolin-6-yl)-5-phenyl-1H-imidazol-2(3H)-one]
> 1000 nM | COc1ccccc1-n1c(-c2ccccc2)c(C(=O)N2CCNCC2)n(CCNS(=O)(=O)c2ccccc2)c1=O [Example 158, N-(2-(3-(2-Methoxyphenyl)-2-oxo-4-phenyl-5-(piperazine-1-carbonyl)-2,3-dihydro-1H-imidazol-1-yl)ethyl)benzenesulfonamide]
